Laboratory results published in the kinase profiling compilation of Christmann-Franck et al. (2016).

What was measured:
Test in all cases: KINOMEscan competition binding
Conditions in all cases: compound 10.0 µM
ACVR2B (human) = ACVR2B (human) (UniProt Q13705)
AURKB (human) = AURKB (human) (UniProt Q96GD4)
BMPR1A (human) = BMPR1A (human) (UniProt P36894)
CDKL2 (human) = CDKL2 (human) (UniProt Q92772)
CHEK1 (human) = CHEK1 (human) (UniProt O14757)
CIT (human) = CIT (human) (UniProt O14578)
CSNK1D (human) = CSNK1D (human) (UniProt P48730)
CSNK2A1 (human) = CSNK2A1 (human) (UniProt P68400)
CaMK1 (human) = CaMK1 (human) (UniProt Q14012)
DCLK2 (human) = DCLK2 (human) (UniProt Q8N568)
EPHB2 (human) = EPHB2 (human) (UniProt P29323)
ERBB4 (human) = ERBB4 (human) (UniProt Q15303)
FLT3 (human) = FLT3 (human) (UniProt P36888)
FRK (human) = FRK (human) (UniProt P42685)
LATS1 (human) = LATS1 (human) (UniProt O95835)
LATS2 (human) = LATS2 (human) (UniProt Q9NRM7)
MAP3K1 (human) = MAP3K1 (human) (UniProt Q13233)
MAP3K5 (human) = MAP3K5 (human) (UniProt Q99683)
MAP4K4 (human) = MAP4K4 (human) (UniProt O95819)
MAPKAPK5 (human) = MAPKAPK5 (human) (UniProt Q8IW41)
[1] = test system: MET (human), P08581 [Y1235D]
MYLK (human) = MYLK (human) (UniProt Q15746)
NEK3 (human) = NEK3 (human) (UniProt P51956)
PDGFRA (human) = PDGFRA (human) (UniProt P16234)
PIM2 (human) = PIM2 (human) (UniProt Q9P1W9)
PKN2 (human) = PKN2 (human) (UniProt Q16513)
PLK3 (human) = PLK3 (human) (UniProt Q9H4B4)
PRKAA1 (human) = PRKAA1 (human) (UniProt Q13131)
PRPF4B (human) = PRPF4B (human) (UniProt Q13523)
RPS6KA6 KD2 (human) = RPS6KA6 KD2 (human) (UniProt Q9UK32)
SGK110 (human) = SGK110 (human) (UniProt P0C264)
SRMS (human) = SRMS (human) (UniProt Q9H3Y6)
SRPK3 (human) = SRPK3 (human) (UniProt Q9UPE1)
STK17B (human) = STK17B (human) (UniProt O94768)
STK33 (human) = STK33 (human) (UniProt Q9BYT3)
STK39 (human) = STK39 (human) (UniProt Q9UEW8)
SYK (human) = SYK (human) (UniProt P43405)
TGFBR2 (human) = TGFBR2 (human) (UniProt P37173)
TTK (human) = TTK (human) (UniProt P33981)
[2] = target: TYK2 JH2 pseudokinase (human) (UniProt P29597)

Sequence of DCLK2 (human) (Q8N568 whole entry, looked up): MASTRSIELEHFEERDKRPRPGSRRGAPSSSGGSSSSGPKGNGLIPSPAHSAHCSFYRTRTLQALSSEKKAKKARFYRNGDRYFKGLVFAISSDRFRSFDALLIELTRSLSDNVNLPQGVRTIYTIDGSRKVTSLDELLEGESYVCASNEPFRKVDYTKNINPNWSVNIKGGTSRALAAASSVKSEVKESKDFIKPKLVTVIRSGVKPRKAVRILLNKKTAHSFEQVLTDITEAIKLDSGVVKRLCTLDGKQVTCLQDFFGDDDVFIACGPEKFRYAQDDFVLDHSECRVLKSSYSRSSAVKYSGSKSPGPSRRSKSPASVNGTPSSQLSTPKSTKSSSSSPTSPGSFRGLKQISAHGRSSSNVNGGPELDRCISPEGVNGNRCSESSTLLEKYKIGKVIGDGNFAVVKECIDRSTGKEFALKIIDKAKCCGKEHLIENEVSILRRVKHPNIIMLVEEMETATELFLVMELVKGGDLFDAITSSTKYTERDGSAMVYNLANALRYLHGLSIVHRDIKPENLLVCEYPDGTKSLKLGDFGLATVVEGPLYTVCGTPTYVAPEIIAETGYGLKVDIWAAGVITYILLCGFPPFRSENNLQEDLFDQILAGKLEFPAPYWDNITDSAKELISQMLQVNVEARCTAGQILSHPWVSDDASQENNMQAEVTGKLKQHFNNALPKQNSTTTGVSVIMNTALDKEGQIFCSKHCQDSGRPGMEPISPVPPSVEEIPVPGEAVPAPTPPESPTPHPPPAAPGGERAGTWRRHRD
Sequence of MAPKAPK5 (human) (Q8IW41 whole entry, looked up): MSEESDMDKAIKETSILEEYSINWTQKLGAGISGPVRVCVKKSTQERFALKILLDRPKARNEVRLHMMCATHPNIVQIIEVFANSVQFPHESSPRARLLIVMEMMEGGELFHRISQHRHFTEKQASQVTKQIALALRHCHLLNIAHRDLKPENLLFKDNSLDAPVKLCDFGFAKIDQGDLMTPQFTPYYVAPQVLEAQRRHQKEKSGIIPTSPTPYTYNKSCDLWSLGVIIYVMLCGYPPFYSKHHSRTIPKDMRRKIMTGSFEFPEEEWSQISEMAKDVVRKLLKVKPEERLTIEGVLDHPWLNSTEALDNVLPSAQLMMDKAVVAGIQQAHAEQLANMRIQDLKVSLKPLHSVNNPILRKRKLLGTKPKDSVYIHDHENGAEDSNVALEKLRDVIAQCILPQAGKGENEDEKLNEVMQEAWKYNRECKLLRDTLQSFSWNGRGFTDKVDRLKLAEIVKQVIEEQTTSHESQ
Sequence of TGFBR2 (human) (P37173 whole entry, looked up): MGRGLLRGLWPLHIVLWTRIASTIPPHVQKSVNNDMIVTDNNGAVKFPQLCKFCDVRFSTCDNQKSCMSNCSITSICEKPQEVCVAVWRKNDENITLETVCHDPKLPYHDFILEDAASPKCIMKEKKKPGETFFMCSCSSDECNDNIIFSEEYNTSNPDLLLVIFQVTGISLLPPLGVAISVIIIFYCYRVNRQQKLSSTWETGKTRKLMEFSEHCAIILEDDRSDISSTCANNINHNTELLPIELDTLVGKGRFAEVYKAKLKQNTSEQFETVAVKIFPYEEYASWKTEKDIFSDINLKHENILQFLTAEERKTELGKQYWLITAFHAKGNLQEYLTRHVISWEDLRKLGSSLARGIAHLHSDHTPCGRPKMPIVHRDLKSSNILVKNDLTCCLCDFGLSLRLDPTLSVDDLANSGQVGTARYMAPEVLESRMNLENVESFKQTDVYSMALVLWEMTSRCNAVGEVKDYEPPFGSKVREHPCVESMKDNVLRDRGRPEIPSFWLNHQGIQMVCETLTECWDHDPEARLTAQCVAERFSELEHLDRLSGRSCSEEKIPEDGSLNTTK
Sequence of LATS1 (human) (O95835 whole entry, looked up): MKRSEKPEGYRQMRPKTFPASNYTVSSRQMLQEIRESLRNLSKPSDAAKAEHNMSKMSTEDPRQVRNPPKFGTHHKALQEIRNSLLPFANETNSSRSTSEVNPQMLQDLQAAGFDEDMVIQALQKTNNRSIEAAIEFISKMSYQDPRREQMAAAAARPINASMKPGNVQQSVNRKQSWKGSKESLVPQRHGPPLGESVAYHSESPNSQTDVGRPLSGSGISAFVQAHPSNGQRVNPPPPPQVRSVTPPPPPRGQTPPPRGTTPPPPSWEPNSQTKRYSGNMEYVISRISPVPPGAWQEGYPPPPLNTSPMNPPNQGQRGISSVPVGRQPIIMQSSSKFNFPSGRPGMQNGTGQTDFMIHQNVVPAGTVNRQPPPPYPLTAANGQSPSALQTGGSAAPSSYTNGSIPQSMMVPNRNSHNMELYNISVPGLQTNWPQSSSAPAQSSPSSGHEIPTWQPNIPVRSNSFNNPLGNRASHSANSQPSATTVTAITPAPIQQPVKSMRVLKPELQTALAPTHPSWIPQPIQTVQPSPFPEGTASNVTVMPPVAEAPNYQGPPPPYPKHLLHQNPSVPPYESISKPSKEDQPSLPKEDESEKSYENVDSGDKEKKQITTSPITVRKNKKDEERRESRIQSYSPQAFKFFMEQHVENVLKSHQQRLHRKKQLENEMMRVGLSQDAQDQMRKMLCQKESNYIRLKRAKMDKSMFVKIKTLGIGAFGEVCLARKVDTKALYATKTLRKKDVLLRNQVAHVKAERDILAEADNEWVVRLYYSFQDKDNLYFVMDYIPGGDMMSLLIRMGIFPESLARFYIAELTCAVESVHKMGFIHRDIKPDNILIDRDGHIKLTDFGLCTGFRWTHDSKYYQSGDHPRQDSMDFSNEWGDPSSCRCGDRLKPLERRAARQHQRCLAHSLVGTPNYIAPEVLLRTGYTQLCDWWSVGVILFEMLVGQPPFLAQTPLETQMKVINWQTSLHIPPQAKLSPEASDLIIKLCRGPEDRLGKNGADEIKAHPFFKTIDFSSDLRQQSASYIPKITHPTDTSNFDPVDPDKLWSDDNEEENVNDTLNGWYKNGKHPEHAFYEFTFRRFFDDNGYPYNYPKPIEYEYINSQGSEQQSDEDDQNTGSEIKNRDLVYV
Sequence of CDKL2 (human) (Q92772 whole entry, looked up): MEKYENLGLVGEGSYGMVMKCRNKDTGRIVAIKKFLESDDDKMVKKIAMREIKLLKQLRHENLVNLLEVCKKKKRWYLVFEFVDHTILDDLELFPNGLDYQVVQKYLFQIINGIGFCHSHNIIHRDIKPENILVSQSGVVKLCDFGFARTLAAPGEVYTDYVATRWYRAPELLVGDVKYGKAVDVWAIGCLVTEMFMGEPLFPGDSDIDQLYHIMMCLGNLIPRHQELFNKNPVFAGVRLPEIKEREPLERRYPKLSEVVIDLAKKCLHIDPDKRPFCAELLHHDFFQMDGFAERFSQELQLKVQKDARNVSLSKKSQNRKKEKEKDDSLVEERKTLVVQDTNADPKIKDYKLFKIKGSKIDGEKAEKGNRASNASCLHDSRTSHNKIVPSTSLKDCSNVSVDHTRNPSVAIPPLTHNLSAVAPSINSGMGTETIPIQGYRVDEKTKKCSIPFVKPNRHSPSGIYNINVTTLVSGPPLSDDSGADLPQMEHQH
Sequence of PLK3 (human) (Q9H4B4 whole entry, looked up): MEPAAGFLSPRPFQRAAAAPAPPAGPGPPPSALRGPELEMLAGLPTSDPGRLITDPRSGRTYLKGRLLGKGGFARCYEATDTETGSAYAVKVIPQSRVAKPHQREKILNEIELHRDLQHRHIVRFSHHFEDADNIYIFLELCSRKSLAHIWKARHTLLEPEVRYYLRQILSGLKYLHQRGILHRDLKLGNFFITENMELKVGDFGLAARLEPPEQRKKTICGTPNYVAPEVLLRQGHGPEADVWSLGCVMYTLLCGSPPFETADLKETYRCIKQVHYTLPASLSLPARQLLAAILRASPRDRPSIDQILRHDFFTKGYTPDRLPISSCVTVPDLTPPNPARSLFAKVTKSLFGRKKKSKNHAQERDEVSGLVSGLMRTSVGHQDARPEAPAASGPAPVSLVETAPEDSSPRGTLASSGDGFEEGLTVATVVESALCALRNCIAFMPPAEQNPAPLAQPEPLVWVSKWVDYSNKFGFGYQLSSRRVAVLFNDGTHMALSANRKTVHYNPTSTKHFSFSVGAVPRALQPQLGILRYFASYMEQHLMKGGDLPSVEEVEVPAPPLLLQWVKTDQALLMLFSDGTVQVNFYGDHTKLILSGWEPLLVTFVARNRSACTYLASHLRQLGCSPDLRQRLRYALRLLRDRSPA
Sequence of PIM2 (human) (Q9P1W9 whole entry, looked up): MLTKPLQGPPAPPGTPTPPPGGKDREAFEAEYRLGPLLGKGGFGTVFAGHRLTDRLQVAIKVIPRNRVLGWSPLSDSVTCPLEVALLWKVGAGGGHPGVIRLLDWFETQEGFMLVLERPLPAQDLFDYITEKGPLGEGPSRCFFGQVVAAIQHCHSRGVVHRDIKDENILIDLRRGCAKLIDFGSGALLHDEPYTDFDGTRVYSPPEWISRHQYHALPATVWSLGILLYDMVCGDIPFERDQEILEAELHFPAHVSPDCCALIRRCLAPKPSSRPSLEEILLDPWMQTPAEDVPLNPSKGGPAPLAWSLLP
Sequence of CSNK2A1 (human) (P68400 whole entry, looked up): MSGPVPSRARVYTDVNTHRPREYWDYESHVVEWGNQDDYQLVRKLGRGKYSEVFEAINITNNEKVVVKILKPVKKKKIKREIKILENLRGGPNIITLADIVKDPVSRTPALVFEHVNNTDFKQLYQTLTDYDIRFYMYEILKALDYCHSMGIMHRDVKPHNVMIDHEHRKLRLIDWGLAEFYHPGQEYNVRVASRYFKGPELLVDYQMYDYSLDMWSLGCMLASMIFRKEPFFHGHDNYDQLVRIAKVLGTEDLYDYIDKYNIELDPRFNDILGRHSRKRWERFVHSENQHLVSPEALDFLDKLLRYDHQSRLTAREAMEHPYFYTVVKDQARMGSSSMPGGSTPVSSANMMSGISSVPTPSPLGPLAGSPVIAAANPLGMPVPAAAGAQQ

Row | SMILES | kinase still bound, per cent of control (ACVR2B (human)) | kinase still bound, per cent of control (AURKB (human)) | kinase still bound, per cent of control (BMPR1A (human)) | kinase still bound, per cent of control (CDKL2 (human)) | kinase still bound, per cent of control (CHEK1 (human)) | kinase still bound, per cent of control (CSNK1D (human)) | kinase still bound, per cent of control (CSNK2A1 (human)) | kinase still bound, per cent of control (CaMK1 (human)) | kinase still bound, per cent of control (DCLK2 (human)) | kinase still bound, per cent of control (EPHB2 (human)) | kinase still bound, per cent of control (ERBB4 (human)) | kinase still bound, per cent of control (FRK (human)) | kinase still bound, per cent of control (LATS1 (human)) | kinase still bound, per cent of control (LATS2 (human)) | kinase still bound, per cent of control (MAP3K1 (human)) | kinase still bound, per cent of control (MAP3K5 (human)) | kinase still bound, per cent of control (MAP4K4 (human)) | kinase still bound, per cent of control (MAPKAPK5 (human)) | kinase still bound, per cent of control [1] | kinase still bound, per cent of control (MYLK (human)) | other results
1 | O=c1cc(N2CCOCC2)oc2c(-c3cccc4c3sc3ccccc34)cccc12 | 98% | 100% | 94% | 96% | 100% | 89% | 74% | 91% | 100% | 91% | 92% | 91% | 100% | 100% | 100% | 100% | 100% | 100% | 59% | 91% | kinase still bound, per cent of control (CIT (human)): 85%; kinase still bound, per cent of control (FLT3 (human)): 100%; kinase still bound, per cent of control (NEK3 (human)): 100%; kinase still bound, per cent of control (PDGFRA (human)): 100%; kinase still bound, per cent of control (PIM2 (human)): 84%; kinase still bound, per cent of control (PKN2 (human)): 86%; kinase still bound, per cent of control (PLK3 (human)): 86%; kinase still bound, per cent of control (PRKAA1 (human)): 100%; kinase still bound, per cent of control (PRPF4B (human)): 78%; kinase still bound, per cent of control (RPS6KA6 KD2 (human)): 79%; kinase still bound, per cent of control (SGK110 (human)): 100%; kinase still bound, per cent of control (SRMS (human)): 62%; kinase still bound, per cent of control (SRPK3 (human)): 100%; kinase still bound, per cent of control (STK17B (human)): 100%; kinase still bound, per cent of control (STK33 (human)): 100%; kinase still bound, per cent of control (STK39 (human)): 100%; kinase still bound, per cent of control (SYK (human)): 100%; kinase still bound, per cent of control (TGFBR2 (human)): 89%; kinase still bound, per cent of control (TTK (human)): 100%; kinase still bound, per cent of control [2]: 100%
2 | COCC(=O)NC/C=C/c1ccc2ncnc(Nc3ccc(Oc4ccc(C)nc4)c(C)c3)c2c1 | 100% | 100% | 17% | 91% | 90% | 90% | 87% | 72% | 100% | 100% | 0.9% | 100% | 100% | 100% | 100% | 90% | 97% | 100% | 81% | 87% | kinase still bound, per cent of control (CIT (human)): 76%; kinase still bound, per cent of control (FLT3 (human)): 100%; kinase still bound, per cent of control (NEK3 (human)): 95%; kinase still bound, per cent of control (PDGFRA (human)): 56%; kinase still bound, per cent of control (PIM2 (human)): 100%; kinase still bound, per cent of control (PKN2 (human)): 99%; kinase still bound, per cent of control (PLK3 (human)): 99%; kinase still bound, per cent of control (PRKAA1 (human)): 89%; kinase still bound, per cent of control (PRPF4B (human)): 93%; kinase still bound, per cent of control (RPS6KA6 KD2 (human)): 88%; kinase still bound, per cent of control (SGK110 (human)): 100%; kinase still bound, per cent of control (SRMS (human)): 71%; kinase still bound, per cent of control (SRPK3 (human)): 100%; kinase still bound, per cent of control (STK17B (human)): 100%; kinase still bound, per cent of control (STK39 (human)): 100%; kinase still bound, per cent of control (SYK (human)): 100%; kinase still bound, per cent of control (TGFBR2 (human)): 94%; kinase still bound, per cent of control (TTK (human)): 80%; kinase still bound, per cent of control [2]: 24%
3 | COc1cc2ncn(-c3cc(OCc4ccccc4C(F)(F)F)c(C(N)=O)s3)c2cc1OC | 58% | 34% | 100% | 90% | 100% | 81% | 30% | 100% | 99% | 94% | 80% | 82% | 100% | 50% | 1.6% | 87% | 53% | 91% | 40% | 50% | kinase still bound, per cent of control (NEK3 (human)): 100%; kinase still bound, per cent of control (PDGFRA (human)): 58%; kinase still bound, per cent of control (PIM2 (human)): 100%; kinase still bound, per cent of control (PKN2 (human)): 39%; kinase still bound, per cent of control (PLK3 (human)): 0%; kinase still bound, per cent of control (PRKAA1 (human)): 68%; kinase still bound, per cent of control (PRPF4B (human)): 20%; kinase still bound, per cent of control (SGK110 (human)): 100%; kinase still bound, per cent of control (SRMS (human)): 58%; kinase still bound, per cent of control (SRPK3 (human)): 16%; kinase still bound, per cent of control (STK17B (human)): 85%; kinase still bound, per cent of control (STK33 (human)): 67%; kinase still bound, per cent of control (STK39 (human)): 89%; kinase still bound, per cent of control (SYK (human)): 72%; kinase still bound, per cent of control (TGFBR2 (human)): 100%; kinase still bound, per cent of control (TTK (human)): 87%; kinase still bound, per cent of control [2]: 97%
4 | NC(=O)Nc1cc(-c2cccc(F)c2)sc1C(=O)N[C@@H]1CCCNC1 | 3.8% | 4.8% | 0.4% | 60% | 0.25% | 15% | 0.35% | 2% | 2.4% | 9.6% | 4.4% | 0.65% | 11% | 2% | 51% | 40% | 0.5% | 0.05% | 0.6% | 3.3% | kinase still bound, per cent of control (CIT (human)): 0.2%; kinase still bound, per cent of control (FLT3 (human)): 0%; kinase still bound, per cent of control (NEK3 (human)): 43%; kinase still bound, per cent of control (PIM2 (human)): 57%; kinase still bound, per cent of control (PKN2 (human)): 38%; kinase still bound, per cent of control (PLK3 (human)): 39%; kinase still bound, per cent of control (PRKAA1 (human)): 0.2%; kinase still bound, per cent of control (PRPF4B (human)): 7.4%; kinase still bound, per cent of control (RPS6KA6 KD2 (human)): 1.2%; kinase still bound, per cent of control (SGK110 (human)): 0%; kinase still bound, per cent of control (SRMS (human)): 0%; kinase still bound, per cent of control (SRPK3 (human)): 0.55%; kinase still bound, per cent of control (STK17B (human)): 2%; kinase still bound, per cent of control (STK33 (human)): 0%; kinase still bound, per cent of control (STK39 (human)): 4.4%; kinase still bound, per cent of control (SYK (human)): 0.05%; kinase still bound, per cent of control (TGFBR2 (human)): 2.4%; kinase still bound, per cent of control (TTK (human)): 12%; kinase still bound, per cent of control [2]: 3.2%
